Literature values as cited in patent publication US20070166344A1, “Non-leaching surface-active film compositions for microbial adhesion prevention” (priority 2006, published 2007).

Conditions: organism not given

## Benzalkonium chloride
  MIC level: about 7.5 ppm
